Measurements reported in ChEMBL document CHEMBL1159270, “Bruceosides D, E, and F, three new cytotoxic quassinoid glucosides from Brucea javanica” (1995).

Columns and labels:
Type in all cases: functional
[1] = Growth inhibition of human Hs 578T cells
NCI-H460 = assay: Growth inhibition of human NCI-H460 cells
HOP-92 = assay: Growth inhibition of human HOP92 cells
SK-MEL-2 = assay: Growth inhibition of human SK-MEL-2 cells
SF-268 = assay: Growth inhibition of human SF268 cells
SW-620 = assay: Growth inhibition of human SW620 cells
MDA-MB-435 = assay: Growth inhibition of human MDA-MB-435 cells
NCI-H322M = assay: Growth inhibition of human NCI-H322M cells
PC-3 = assay: Growth inhibition of human PC3 cells
ACHN = assay: Growth inhibition of human ACHN cells
HCC 2998 = assay: Growth inhibition of human HCC2998 cells
TK-10 = assay: Growth inhibition of human TK10 cells
NCI-H522 = assay: Growth inhibition of human NCI-H522 cells
MDA-MB-231 = assay: Growth inhibition of human MDA-MB-231 cells
OVCAR-3 = assay: Growth inhibition of human OVCAR-3 cells
SK-MEL-28 = assay: Growth inhibition of human SK-MEL-28 cells
786-0 = assay: Growth inhibition of human 786-0 cells
SF-539 = assay: Growth inhibition of human SF539 cells
SNB-19 = assay: Growth inhibition of human SNB19 cells
NCI-H226 = assay: Growth inhibition of human NCI-H226 cells
T47D = assay: Growth inhibition of human T47D cells
IGROV-1 = assay: Growth inhibition of human IGROV1 cells
UO-31 = assay: Growth inhibition of human UO31 cells
BT-549 = assay: Growth inhibition of human BT549 cells
LOX IMVI = assay: Growth inhibition of human LOXIMVI cells
HT-29 = assay: Growth inhibition of human HT-29 cells
SK-MEL-5 = assay: Growth inhibition of human SK-MEL-5 cells
MOLT-4 = assay: Growth inhibition of human MOLT4 cells
U-251 = assay: Growth inhibition of human U251 cells
HCT-15 = assay: Growth inhibition of human HCT15 cells
CAKI-1 = assay: Growth inhibition of human Caki1 cells
MCF7 = assay: Growth inhibition of human MCF7 cells
EKVX = assay: Growth inhibition of human EKVX cells
HOP-62 = assay: Growth inhibition of human HOP62 cells
SK-OV-3 = assay: Growth inhibition of human SKOV3 cells
SNB-75 = assay: Growth inhibition of human SNB75 cells
UACC-62 = assay: Growth inhibition of human UACC62 cells
NCI-H23 = assay: Growth inhibition of human NCI-H23 cells
CCRF-CEM = assay: Growth inhibition of human CCRF-CEM cells
MDA-N = assay: Growth inhibition of human MDA-N cells
UACC-257 = assay: Growth inhibition of human UACC257 cells
K562 = assay: Growth inhibition of human K562 cells
OVCAR-8 = assay: Growth inhibition of human OVCAR8 cells
Malme-3M = assay: Growth inhibition of human MALME-3M cells
M14 = assay: Growth inhibition of human M14 cells
A549 = assay: Growth inhibition of human A549 cells
COLO 205 = assay: Growth inhibition of human COLO205 cells
[2] = Growth inhibition of human MCF7/ADR cells; details: NCI/ADR-RES
RXF 393 = assay: Growth inhibition of human RXF393 cells
HCT-116 = assay: Growth inhibition of human HCT116 cells
OVCAR-5 = assay: Growth inhibition of human OVCAR5 cells
A498 = assay: Growth inhibition of human A498 cells
SR = assay: Growth inhibition of human SR cells
KM12 = assay: Growth inhibition of human KM12 cells
HL-60(TB) = assay: Growth inhibition of human HL-60(TB) cells
OVCAR-4 = assay: Growth inhibition of human OVCAR4 cells
DU-145 = assay: Growth inhibition of human DU145 cells
SN12C = assay: Growth inhibition of human SN12C cells

SMILES: CC(C)=CC(=O)O[C@H]1C(=O)O[C@@H]2C[C@H]3[C@H](C)C(=O)C(O[C@@H]4O[C@H](CO)[C@@H](O)[C@H](O)[C@H]4O)=C[C@]3(C)[C@H]3[C@@H](O)[C@H](O)[C@]4(C(=O)O)OC[C@]32[C@@H]14 [BRUCEOSIDE D]
- GI50 [1]: > 100 µM
- GI50 (NCI-H460): 32.4 µM
- GI50 (HOP-92): 31.6 µM
- GI50 (SK-MEL-2): > 100 µM
- GI50 (SF-268): > 100 µM
- GI50 (SW-620): > 100 µM
- GI50 (MDA-MB-435): > 100 µM
- GI50 (NCI-H322M): > 100 µM
- GI50 (PC-3): > 100 µM
- GI50 (ACHN): > 100 µM
- GI50 (HCC 2998): 24.5 µM
- GI50 (TK-10): > 100 µM
- GI50 (NCI-H522): 28.8 µM
- GI50 (MDA-MB-231): > 100 µM
- GI50 (OVCAR-3): 20.4 µM
- GI50 (SK-MEL-28): 37.2 µM
- GI50 (786-0): > 100 µM
- GI50 (SF-539): 26.3 µM
- GI50 (SNB-19): 31.6 µM
- GI50 (NCI-H226): 28.2 µM
- GI50 (T47D): > 100 µM
- GI50 (IGROV-1): > 100 µM
- GI50 (UO-31): 31.6 µM
- GI50 (BT-549): > 100 µM
- GI50 (LOX IMVI): 40.7 µM
- GI50 (HT-29): 35.5 µM
- GI50 (SK-MEL-5): 42.7 µM
- GI50 (MOLT-4): 22.4 µM
- GI50 (U-251): 39.8 µM
- GI50 (HCT-15): > 100 µM
- GI50 (CAKI-1): > 100 µM
- GI50 (MCF7): 22.4 µM
- GI50 (EKVX): > 100 µM
- GI50 (HOP-62): 33.1 µM
- GI50 (SK-OV-3): > 100 µM
- GI50 (SNB-75): > 100 µM
- GI50 (UACC-62): > 100 µM
- GI50 (NCI-H23): > 100 µM
- GI50 (CCRF-CEM): 36.3 µM
- GI50 (MDA-N): > 100 µM
- GI50 (UACC-257): > 100 µM
- GI50 (K562): 25.7 µM
- GI50 (OVCAR-8): > 100 µM
- GI50 (Malme-3M): 24 µM
- GI50 (M14): 32.4 µM
- GI50 (A549): 55 µM
- GI50 (COLO 205): > 100 µM
- GI50 [2]: > 100 µM
- GI50 (RXF 393): 25.1 µM
- GI50 (HCT-116): 29.5 µM
- GI50 (OVCAR-5): > 100 µM
- GI50 (A498): > 100 µM
- GI50 (SR): 30.9 µM
- GI50 (KM12): 49 µM
- GI50 (HL-60(TB)): 35.5 µM
- GI50 (OVCAR-4): 25.1 µM
- GI50 (DU-145): > 100 µM
- GI50 (SN12C): > 100 µM

SMILES: CC(C)CC(=O)O[C@H]1C(=O)O[C@@H]2C[C@H]3[C@H](C)C(=O)C(O[C@@H]4O[C@H](CO)[C@@H](O)[C@H](O)[C@H]4O)=C[C@]3(C)[C@H]3[C@@H](O)[C@H](O)[C@]4(C(=O)O)OC[C@]32[C@@H]14 [BRUCEOSIDE E]
- GI50 [1]: 39.8 µM
- GI50 (NCI-H460): 27.5 µM
- GI50 (HOP-92): 37.2 µM
- GI50 (SK-MEL-2): > 100 µM
- GI50 (SF-268): > 100 µM
- GI50 (SW-620): > 100 µM
- GI50 (MDA-MB-435): > 100 µM
- GI50 (NCI-H322M): > 100 µM
- GI50 (PC-3): > 100 µM
- GI50 (ACHN): > 100 µM
- GI50 (HCC 2998): 20.4 µM
- GI50 (TK-10): > 100 µM
- GI50 (NCI-H522): 2.19 µM
- GI50 (MDA-MB-231): > 100 µM
- GI50 (OVCAR-3): 36.3 µM
- GI50 (SK-MEL-28): 25.1 µM
- GI50 (786-0): > 100 µM
- GI50 (SF-539): 20.4 µM
- GI50 (SNB-19): 31.6 µM
- GI50 (NCI-H226): 29.5 µM
- GI50 (T47D): > 100 µM
- GI50 (IGROV-1): 35.5 µM
- GI50 (UO-31): > 100 µM
- GI50 (BT-549): > 100 µM
- GI50 (LOX IMVI): 38.9 µM
- GI50 (HT-29): 33.9 µM
- GI50 (SK-MEL-5): 28.2 µM
- GI50 (MOLT-4): 19.1 µM
- GI50 (U-251): 31.6 µM
- GI50 (HCT-15): > 100 µM
- GI50 (CAKI-1): > 100 µM
- GI50 (MCF7): 28.2 µM
- GI50 (EKVX): > 100 µM
- GI50 (HOP-62): 44.7 µM
- GI50 (SK-OV-3): > 100 µM
- GI50 (SNB-75): > 100 µM
- GI50 (UACC-62): > 100 µM
- GI50 (NCI-H23): > 100 µM
- GI50 (CCRF-CEM): 24.5 µM
- GI50 (MDA-N): > 100 µM
- GI50 (UACC-257): > 100 µM
- GI50 (K562): 24 µM
- GI50 (OVCAR-8): > 100 µM
- GI50 (Malme-3M): 22.9 µM
- GI50 (M14): > 100 µM
- GI50 (A549): 41.7 µM
- GI50 (COLO 205): > 100 µM
- GI50 [2]: > 100 µM
- GI50 (RXF 393): 10.7 µM
- GI50 (HCT-116): 33.1 µM
- GI50 (OVCAR-5): > 100 µM
- GI50 (A498): > 100 µM
- GI50 (SR): 33.9 µM
- GI50 (KM12): > 100 µM
- GI50 (HL-60(TB)): 41.7 µM
- GI50 (OVCAR-4): 1.91 µM
- GI50 (DU-145): > 100 µM
- GI50 (SN12C): > 100 µM

SMILES: CC(=O)OC(C)(C)/C(C)=C/C(=O)O[C@H]1C(=O)O[C@@H]2C[C@H]3[C@H](C)C(=O)C(O[C@@H]4O[C@H](CO)[C@@H](O)[C@H](O)[C@H]4O)=C[C@]3(C)[C@H]3[C@@H](O)[C@H](O)[C@]4(C(=O)O)OC[C@]32[C@@H]14 [BRUCEOSIDE F]
- GI50 [1]: > 100 µM
- GI50 (NCI-H460): 39.8 µM
- GI50 (HOP-92): 66.1 µM
- GI50 (SK-MEL-2): > 100 µM
- GI50 (SF-268): > 100 µM
- GI50 (SW-620): > 100 µM
- GI50 (MDA-MB-435): > 100 µM
- GI50 (NCI-H322M): > 100 µM
- GI50 (PC-3): > 100 µM
- GI50 (ACHN): > 100 µM
- GI50 (HCC 2998): 36.3 µM
- GI50 (TK-10): > 100 µM
- GI50 (NCI-H522): 18.6 µM
- GI50 (MDA-MB-231): > 100 µM
- GI50 (OVCAR-3): 25.7 µM
- GI50 (SK-MEL-28): > 100 µM
- GI50 (786-0): > 100 µM
- GI50 (SF-539): 56.2 µM
- GI50 (SNB-19): > 100 µM
- GI50 (NCI-H226): 72.4 µM
- GI50 (T47D): > 100 µM
- GI50 (IGROV-1): > 100 µM
- GI50 (UO-31): > 100 µM
- GI50 (BT-549): > 100 µM
- GI50 (LOX IMVI): > 100 µM
- GI50 (HT-29): > 100 µM
- GI50 (SK-MEL-5): > 100 µM
- GI50 (MOLT-4): 33.9 µM
- GI50 (U-251): > 100 µM
- GI50 (HCT-15): > 100 µM
- GI50 (CAKI-1): > 100 µM
- GI50 (MCF7): 27.5 µM
- GI50 (EKVX): > 100 µM
- GI50 (HOP-62): 69.2 µM
- GI50 (SK-OV-3): > 100 µM
- GI50 (SNB-75): > 100 µM
- GI50 (UACC-62): > 100 µM
- GI50 (NCI-H23): > 100 µM
- GI50 (CCRF-CEM): 43.7 µM
- GI50 (MDA-N): > 100 µM
- GI50 (UACC-257): > 100 µM
- GI50 (K562): 39.8 µM
- GI50 (OVCAR-8): > 100 µM
- GI50 (Malme-3M): 56.2 µM
- GI50 (M14): > 100 µM
- GI50 (A549): > 100 µM
- GI50 (COLO 205): > 100 µM
- GI50 [2]: > 100 µM
- GI50 (RXF 393): 37.2 µM
- GI50 (HCT-116): 38 µM
- GI50 (OVCAR-5): > 100 µM
- GI50 (A498): > 100 µM
- GI50 (SR): 49 µM
- GI50 (KM12): > 100 µM
- GI50 (HL-60(TB)): 47.9 µM
- GI50 (OVCAR-4): > 100 µM
- GI50 (DU-145): > 100 µM
- GI50 (SN12C): > 100 µM
